Test results from patent US8476414B2, “Substrates and internal standards for mass spectrometry detection” (PerkinElmer Health Sciences, Inc., priority 2006, dated 2013).

Key:
[1] = target: T1, acid α-galactosidase A (GLA) (Homo sapiens, UniProt P06280); experiment: Dried blood spot enzyme assay with Fabry substrate, tandem mass spectrometry detection of the enzymatic product; type: biochemical; settings: with dried blood sample, 15 to 24 hours at 37° Celsius, sodium acetate pH 4.6
T1 construct: from tissue
T1 sequence (P06280 32-429): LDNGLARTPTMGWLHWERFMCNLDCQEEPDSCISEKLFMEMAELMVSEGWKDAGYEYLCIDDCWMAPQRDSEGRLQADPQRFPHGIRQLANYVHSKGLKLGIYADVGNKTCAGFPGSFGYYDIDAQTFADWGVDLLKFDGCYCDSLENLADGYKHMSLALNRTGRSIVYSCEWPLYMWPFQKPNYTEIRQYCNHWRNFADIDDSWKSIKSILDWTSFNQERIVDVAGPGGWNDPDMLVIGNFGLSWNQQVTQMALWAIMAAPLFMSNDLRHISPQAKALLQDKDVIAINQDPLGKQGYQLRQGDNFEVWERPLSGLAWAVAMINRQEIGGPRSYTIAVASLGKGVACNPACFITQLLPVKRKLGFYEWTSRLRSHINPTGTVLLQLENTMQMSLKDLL
Method: (§1) For each sample, a disk of 3 mm diameter is punched from the areas of dried blood on a filter paper into a micro-centrifuge tube or a well of a 96-well microtiter plate. The blood disk is then incubated directly with an assay solution containing a substrate directed to the Fabry disease. The assay solution is prepared by mixing a 10 mM solution of substrate (4-(Hexadecanoyl-DL-carnitineamido)phenyl-α-D-galactopyranoside), a 1 mM solution of the internal standard for the enzymatic product (4-(Hexadecanoyl-DL-carnitine[C16-d3]amido)phenol), a 1 M solution of Acetylgalactosamine, and a 0.4 M solution of sodium acetate pH 4.6 buffer in a 8:1:3:38 ratio. The assay mixture containing the blood disk is incubated for 15 to 24 hours at 37° Celsius with orbital shaking (150 rpm) in a thermostatic air shaker. After the incubation period, an aliquot of pure methanol (without the use of chloroform) is added to each tube or well to terminate the enzymatic reaction. Before going into the mass spectrometer, an aliquot of the incubated aliquot is diluted in pure methanol. For the mass spectrometry analysis, the electrospray source is operated in positive mode, and the ions are detected in the parent ion of 176 scan mode. The amount of enzymatic product is calculated from the ion abundance ratio of the product to the internal standard minus that of a blank.

[2] = Non-enzymatic hydrolysis of substrate in blank sample not containing blood, processed as the dried blood spots; type: physicochemical; settings: blank without blood, same assay solution and processing
Method: as §1, with “After the incubation period, an aliquot of pure methanol (without the use of chloroform) is added to each tube or well to terminate the enzymatic reaction. Before going into the mass spectrometer, an aliquot of the incubated aliquot is diluted in pure methanol.” left out
The […] chain for this particular example was chosen to contain 10 carbons and thus decanoyl-carnitine was used in the synthesis of the substrate. […] The final sample solutions were analyzed on a Waters Quattro Micro ESI-triple quadrupole tandem mass spectrometer using a parent ion of 176 scan. […]

acid α-glucosidase (GAA) = experiment: Dried blood spot enzyme assay with Pompe substrate, tandem mass spectrometry detection of the enzymatic product; type: biochemical, human; settings: pH 3.98
Method: An enzymatic reaction using a substrate directed to Pompe disease and the mass spectrometry analysis thereafter is carried out using the method specified in Example 1 with the following exceptions that sodium citrate was used as buffer. The assay solution for Example 2 was prepared by mixing a buffer solution (0.2 M sodium citrate/sodium phosphate, pH 3.98), a solution of 8 mM Acarbose, a solution of 10 mM substrate (4-Decanoyl-DL-carnitineamido)phenyl-α-D-glucopyranoside), and a solution of 1.0 mM internal standard (4-Decanoyl-DL-carnitine[C10-d3]amido)phenol) in a 93:1:4:2 ratio. The rest of the procedure is as indicated in Example 1.
In addition a blank filter paper sample not containing blood was processed following the same procedure as the dried blood spots. The same assay solution containing buffers, substrates, inhibitors and internal standards was used for all three samples. Therefore, all samples received the same concentration of reagents. The final sample solutions were analyzed on a Waters Quattro Micro ESI-triple quadrupole tandem mass spectrometer using a parent ion of 176 scan. The predominant peaks shown in the spectra are those corresponding to the intact substrate, internal standard and corresponding enzymatic product. […]

Row | enzymatic product of the substrate detected by MS/MS [1] | non-enzymatic substrate hydrolysis (product found in blank) [2] | conversion of substrate to product (abundance of product relative to internal standard) (acid α-glucosidase (GAA); dried blood spot of healthy newborn) | SMILES | conversion of substrate to product (abundance of product relative to internal standard) (acid α-glucosidase (GAA); dried blood spot of confirmed Pompe positive newborn)
1 | significant amount | minimal amount | – | CCCCCCCCCCCCCCCC(=O)OC(CC(=O)Nc1ccc(O[C@H]2O[C@H](CO)[C@H](O)[C@H](O)[C@H]2O)cc1)C[N+](C)(C)C (mixture of isomers) [substrate directed to Fabry disease, 4-(Hexadecanoyl-DL-carnitineamido)phenyl-α-D-galactopyranoside] | –
2 | – | negligible | highly noticeable | CCCCCCCCCC(=O)OC(CC(=O)Nc1ccc(O[C@H]2O[C@H](CO)[C@@H](O)[C@H](O)[C@H]2O)cc1)C[N+](C)(C)C (mixture of isomers) [substrate directed to Pompe disease, 4-(Decanoyl-DL-carnitineamido)phenyl-α-D-glucopyranoside] | no noticeable substrate to product conversion
